Measured values: patent US20090220528A1, “Stimulation of Toll-Like Receptors on T Cells” (THE TRUSTEES OF THE UNIVERISTY OF PENNSYLVANIA CNETER FOR …, priority 2005, published 2009)

Assays:
Format in all cases: cell-based, mouse
CD4+ T cells = assay: TLR ligation at the time of T cell stimulation: proliferation, IL-2 production and signaling
Procedure: The present experiments were designed to assess the effects of TLR ligation at the time of T cell stimulation, and analysis of signaling pathways which mediate them.
Similar results were observed when anti-CD28 was used in combination with anti-CD3 (FIGS. 7B-7D). IL-2 production from treat T cells were also measured (FIG. 8). These effects were additive to those of anti-CD28 stimulation.
This led to the examination of other signaling pathways downstream of TLR9. For example, experiments were designed to assess the role of phosphatidyl inositol 3 kinase (PI3K) in TLR9 activation because of the ability of TLR ligation to synergize with TCR stimulation for IL-2 production and proliferation was reminiscent of CD28 functions. PI3K is a lipid kinase which catalyzes the phosphorylation of phosphatidyl inositol bis 4, 5, phosphate (PIP2) into phosphatidyl inositol tris 3, 4, 5, phosphate (PIP3). PIP3 is an important cell signaling molecule, activating protein kinase B/Akt, and other downstream pathways. In T cells, PI3K activation is a major known downstream signaling pathway of the T cell costimulatory receptor CD28.

[1] = tested on: MyD88-/- activated CD4+ T cells; assay: TLR ligand-mediated survival of MyD88-/- activated CD4+ T cells; details: FIG. 4B
Excerpt: BALB/c mice were purchased from The Jackson Laboratory (Bar Harbor, Me.). DO11.10 mice on the BALB/c background have been described previously (Hsieh et al., 1992, Proc. Natl. Acad. Sci. USA 89:6065). MyD88^−/− mice have been described previously (Adachi et al., 1998, Immunity 9:143). For these experiments MyD88^+/− mice were backcrossed at least five times onto a C57BL/6 background and intercrossed to generate MyD88^−/− and MyD88^+/+ wild-type control littermates.
Following activation, purified CD4^+ T cells were washed twice in PBS and replated in culture medium at 10^6/ml. Cultures were left untreated or treated with either TLR ligands and/or inhibitors for indicated times and concentrations. Following incubation, CD4^+ T cells were washed twice in PBS/2% FBS and stained with CD4-allophycocyanin monoclonal antibody and 7-aminoactinomycin D (7-AAD; BD PharMingen) or annexin (BD PharMingen) and survival was assessed by exclusion of either of these two stains. […] Live CD4^+ T cell counts were calculated by taking the ratio of the number of CD4^+CD45.1^−7-ADD^− events collected to the number CD45.1^+ events collected and multiplying by 50,000. Proliferation was measured by CFSE dye dilution as previously described (Wells et al., 1997 J. Clin. Invest. 100:3173). […]

[2] = tested on: activated DO11.10 CD4+ T cells; assay: Proliferation by CFSE dye dilution; details: 72 hours following activation; relative to untreated activated controls (FIG. 3D)
Procedure: Following activation, purified CD4^+ T cells were washed twice in PBS and replated in culture medium at 10^6/ml. Cultures were left untreated or treated with either TLR ligands and/or inhibitors for indicated times and concentrations. Following incubation, CD4^+ T cells were washed twice in PBS/2% FBS and stained with CD4-allophycocyanin monoclonal antibody and 7-aminoactinomycin D (7-AAD; BD PharMingen) or annexin (BD PharMingen) and survival was assessed by exclusion of either of these two stains. […] Live CD4^+ T cell counts were calculated by taking the ratio of the number of CD4^+CD45.1^−7-ADD^− events collected to the number CD45.1^+ events collected and multiplying by 50,000. Proliferation was measured by CFSE dye dilution as previously described (Wells et al., 1997 J. Clin. Invest. 100:3173).
Without wishing to be bound by any particular theory, the increases in live cells numbers observed could be explained by TLR ligand-mediated increases in CD4^+ T cell proliferation. […] To address this issue, CFSE-labeled DO11.10 CD4^+ T cells were first activated by pOVA-pulsed APCs for 16 hours, purified by magnetic beads, and then treated with TLR ligands and assessed for proliferation 72 hours following activation (FIG. 3D).

[3] = tested on: Foxp3+GFP+ and Foxp3-GFP- T cells; assay: Foxp3 expression (GFP reporter) and IL-6 production in Foxp3+ and Foxp3- T cells under stimulation
Procedure: In order to study the effect of stimulation conditions on Foxp3 expression, T cells were from mice having a reporter construct introduced into the FOXP3 locus (Betteli et al., 2006, Nature 441:235-238) by sorting cells based on the GFP-reporter construct. The reporter construct expresses both Fox3p and the fluorescent protein GFP. T cells that are Foxp3^− (i.e. GFP^−) and T cells that are Foxp3^+ (i.e. GFP^+) were isolated (FIG. 21A). Foxp3 expression was then assessed under different stimulation conditions, […]

## poly(I:C)
CD4+ T cells; FIG. 8
  IL-2 protein production with T cell stimulation: able to synergize
CD4+ T cells; FIG. 9
  TRAF6 requirement of proliferative effects: did not require TRAF6
CD4+ T cells; with sub-mitogenic anti-CD3, with or without anti-CD28 (FIG. 7)
  T cell proliferation with T cell stimulation: able to synergize
[1]
  enhanced survival response in MyD88-/- activated CD4+ T cells: left intact
[2]
  proliferation of activated CD4+ T cells: did not enhance proliferation
[3]; activated by anti-CD3 plus TLR ligand (FIG. 21B)
  Foxp3 expression in Foxp3+GFP+ cells (natural Tregs): maintained Foxp3 expression
[3]; stimulation with anti-CD3 and anti-CD28 antibodies and TGF-b, with additions (FIG. 22)
  Foxp3 expression in Foxp3-GFP- cells (non-regulatory T cells): augmented
